Test results as given in ChEMBL document CHEMBL1201862, “PubChem BioAssay data set” (2004).
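Compound exposure: 48 hours, 5 concentrations, 96-well plates. At the GI50, growth is halved.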 Calls of active or inactive are those of the source. Rule as the data show it: active = GI50 up to about 1.1 µM and inactive = higher. Non-standard residues stand in square brackets, D forms with d. Residues, ends and D or L forms follow the SMILES beside them. *: point of attachment. Cbz = O=C(OCc1ccccc1)*; Boc = CC(C)(C)OC(=O)*; Aib = CC(C)(N)C(=O)O; OBn = c1ccc(CO*)cc1; OtBu = CC(C)(C)O*; βAla = NCCC(=O)O

Key:
Assay in all cases: NCI anticancer screen, dose series, 48 h
HOP-92 = system: HOP-92
NCI-H522 = system: NCI-H522
COLO 205 = system: COLO 205
OVCAR-8 = system: OVCAR-8
NCI-H460 = system: NCI-H460
T47D = system: T47D
BT-549 = system: BT-549
SK-OV-3 = system: SK-OV-3
ACHN = system: ACHN
KM12 = system: KM12
PC-3 = system: PC-3
HOP-62 = system: HOP-62
SK-MEL-28 = system: SK-MEL-28
U-251 = system: U-251
M14 = system: M14
HCT-15 = system: HCT-15
LOX IMVI = system: LOX IMVI
MDA-MB-435 = system: MDA-MB-435
SK-MEL-2 = system: SK-MEL-2

SMILES | GI50 (HOP-92) | GI50 (NCI-H522) | GI50 (COLO 205) | GI50 (OVCAR-8) | GI50 (NCI-H460) | GI50 (T47D) | GI50 (BT-549) | GI50 (SK-OV-3) | GI50 (ACHN) | GI50 (KM12) | GI50 (PC-3) | GI50 (HOP-62) | GI50 (SK-MEL-28) | GI50 (U-251) | GI50 (M14) | GI50 (HCT-15) | GI50 (LOX IMVI) | GI50 (MDA-MB-435) | GI50 (SK-MEL-2)
CC(C)(C)OC(=O)CC(NC(=O)OC(C)(C)C)C(=O)NC(CCCCNC(=O)OCc1ccccc1)C(=O)NC(C)(C)C(=O)NCCC(=O)OCc1ccccc1 (configuration not stated) (Boc-D(OtBu)K(Cbz)[Aib][βAla]-OBn; configuration not given here) | > 100 µM (inactive) | > 100 µM (inactive) | > 100 µM (inactive) | > 100 µM (inactive) | > 100 µM (inactive) | > 100 µM (inactive) | > 100 µM (inactive) | > 100 µM (inactive) | > 100 µM (inactive) | > 100 µM (inactive) | > 100 µM (inactive) | > 100 µM (inactive) | > 100 µM (inactive) | > 100 µM (inactive) | > 100 µM (inactive) | > 100 µM | > 100 µM (inactive) | > 100 µM (inactive) | 
CCOC(=O)C(NC(=O)c1ccccc1)(Nc1ccc(Cl)cc1C(F)(F)F)C(F)(F)F (configuration not stated) | 4.99 µM (inactive) | 2.59 µM (inactive) | 4.58 µM (inactive) | 5.36 µM (inactive) | > 20.5 µM (inactive) | 4.39 µM (inactive) | 6.37 µM (inactive) | 9.4 µM (inactive) | 9.42 µM (inactive) | 1.42 µM (inactive) | 3.13 µM (inactive) | 3.91 µM (inactive) | 6.97 µM (inactive) | 3.74 µM (inactive) | 4.13 µM (inactive) |  | 5.33 µM (inactive) | 1.26 µM (inactive) | 4.74 µM (inactive)
[N-]=[N+]=Nc1cc(=O)n(-c2ccccc2)c(=O)n1-c1ccccc1 | > 100 µM (inactive) | > 100 µM (inactive) | > 100 µM (inactive) | > 100 µM (inactive) |  | > 100 µM (inactive) | > 100 µM (inactive) | > 100 µM (inactive) | > 100 µM (inactive) | > 100 µM (inactive) | > 100 µM (inactive) | > 100 µM (inactive) | > 100 µM (inactive) | > 100 µM (inactive) | > 100 µM (inactive) |  |  | > 100 µM (inactive) | > 100 µM (inactive)
Nc1ncc(/C=N/O)c(NCC2(CO)CC(CCc3ccccc3)C2)n1 (configuration not stated) | 12.4 µM (inactive) | 3.22 µM (inactive) | 10.8 µM (inactive) | 11.1 µM (inactive) | 5.74 µM (inactive) | 0.0111 µM (active) | > 10 µM (inactive) |  |  | 14.3 µM (inactive) | 13.9 µM (inactive) | 11.3 µM (inactive) |  | 12 µM (inactive) |  | 13.1 µM | 2.39 µM (inactive) | 11.1 µM (inactive) | 16.1 µM (inactive)
CC1=NN(c2cccc(Cl)c2)C2(C1)C(Cl)C(=O)N2c1nc2ccccc2s1 (configuration not stated) | 25.3 µM (inactive) | 21.8 µM (inactive) | 18 µM (inactive) | 32.5 µM (inactive) | 36.6 µM (inactive) | 26.2 µM (inactive) | 27.8 µM (inactive) | 28 µM (inactive) | 32.7 µM (inactive) | 22.3 µM (inactive) | 22.6 µM (inactive) | 25.5 µM (inactive) |  | 23.9 µM (inactive) | 22.5 µM (inactive) | 28.8 µM | 18.7 µM (inactive) | 25.6 µM (inactive) | 17.1 µM (inactive)
O=C1NC(=S)NC(=O)C1C(c1ccccc1[N+](=O)[O-])C1C(=O)NC(=S)NC1=O.c1ccncc1 | > 100 µM (inactive) | > 100 µM (inactive) | > 100 µM (inactive) | > 100 µM (inactive) | > 100 µM (inactive) | > 100 µM (inactive) | > 100 µM (inactive) |  | > 100 µM (inactive) | > 100 µM (inactive) | > 100 µM (inactive) | > 100 µM (inactive) | > 100 µM (inactive) | > 100 µM (inactive) | > 100 µM (inactive) | > 100 µM | > 100 µM (inactive) | > 100 µM (inactive) | > 100 µM (inactive)
C[C@]12CC/C(=N\O)C=C1CC[C@@H]1[C@@H]2CC[C@]2(C)C(=N/O)/C(=C/c3ccc([N+](=O)[O-])cc3)C[C@@H]12 | 3.3 µM (inactive) | 2.59 µM (inactive) | 4.9 µM (inactive) |  | 44.8 µM (inactive) | 1.05 µM (active) | 3.05 µM (inactive) | 15.5 µM (inactive) | 5.21 µM (inactive) | 4.04 µM (inactive) | 4.8 µM (inactive) | 18.4 µM (inactive) | 9.25 µM (inactive) |  | 4.05 µM (inactive) | 3.44 µM | 5.11 µM (inactive) | 3.6 µM (inactive) | 3.91 µM (inactive)
CS(=O)(=O)OCC1CN(S(C)(=O)=O)c2cc(O)ccc21 (configuration not stated) | 3.09 µM (inactive) | 1.11 µM (active) | 2.3 µM (inactive) | 2.67 µM (inactive) | 2.96 µM (inactive) | 0.498 µM (active) | 2.19 µM (inactive) |  | 3.18 µM (inactive) | 2.96 µM (inactive) | 2.09 µM (inactive) | 2.47 µM (inactive) | 3.47 µM (inactive) | 2.36 µM (inactive) |  | 3.1 µM | 3.17 µM (inactive) | 2.02 µM (inactive) | 2.59 µM (inactive)
